Reference: publication PMC12446468, “Anti-inflammatory and cytotoxic assessment of flavonoids isolated from Viola odorata flowers with computer-guided docking study” (Scientific Reports, 2025)
Converted amounts (≈) assume the structure as drawn.

How the values were obtained:
[1] = MTT cytotoxicity assay, Caco-2; assay type: cell-based, human; settings: human, Caco-2 cells (human colonic epithelial cells), 48 h
Method: (§1) The assessment of cytotoxicity for the methanolic extract and isolated flavonoids was performed under controlled and sterile conditions within a Class II A2 Laminar flow biosafety cabinet. The carcinoma cell lines used in this study was obtained from Nawah Scientific Inc. (Cairo, Egypt). The cells were cultured in Dulbecco’s Modified Eagle’s Medium, enriched with 10% heat-inactivated fetal bovine serum, 100 U/ml penicillin, and 100 μg/ml streptomycin sulfate, maintained at […] in humidified incubators with 5% CO2. Upon reaching approximately 80% confluence, the cells were subcultured using a trypsin–EDTA solution. Harvesting occurred during the logarithmic growth phase. The methanolic extract and isolated flavonoids were dissolved in DMSO and stored at − 20 °C. For each experimental trial, the stock solutions were mixed with the culture medium to obtain the required final concentrations.
(§2) The effectiveness of the extract was compared to that of the reference drug, Doxorubicin. The percentage of cell viability was calculated by taking the ratio of the absorbance of the plant extract to that of the control, multiplied by 100. Furthermore, the IC50 value of the plant extract was determined using Sigma Plot software version 11 (Spw.exe) (https://sigmaplot.software.informer.com/11.0/).

[2] = test system: human colonic epithelial cells (Caco-2); experiment: MTT cytotoxicity assay, Caco-2; assay type: cell-based; settings: Homo sapiens, Caco-2, 48 h, read-out: IC50
Method: as §1, §2

[3] = test system: human colorectal carcinoma cells (HTC-116); experiment: MTT cytotoxicity assay, HTC-116; assay type: cell-based; settings: Homo sapiens, HTC-116, 48 h, read-out: IC50
Method: as §1, §2

[4] = MTT cytotoxicity assay, HTC-116; assay type: cell-based, human; settings: human, HTC-116 cells (human colorectal carcinoma), 48 h
Method: as §1, §2

[5] = MTT cytotoxicity assay, HepG2; assay type: cell-based, human; settings: human, HepG2 cells (hepatocellular carcinoma), 48 h
Method: as §1, §2

[6] = test system: hepatocellular carcinoma (HepG2); experiment: MTT cytotoxicity assay, HepG2; assay type: cell-based, human; settings: Homo sapiens, HepG2, 48 h, read-out: IC50
Method: as §1, §2

`COc1cccc2c1C(=O)c1c(O)c3c(c(O)c1C2=O)C[C@@](O)(C(=O)CO)C[C@@H]3O[C@H]1C[C@H](N)[C@H](O)[C@H](C)O1` [Doxorubicin, reference compound] gave a cytotoxicity at 48 h, 6.25 µg/ml ([1]; Caco-2, 6.25 ug/ml) of 28.1%, a viability at 48 h, 6.25 µg/ml ([1]; Caco-2, 6.25 ug/ml, read-out: % Cell viability) of 71.9% and a cytotoxicity at 48 h, 12.5 µg/ml ([1]; Caco-2, 12.5 ug/ml) of 41.6%. The viability at 48 h, 12.5 µg/ml ([1]; Caco-2, 12.5 ug/ml, read-out: % Cell viability) was 58.4%, the cytotoxicity at 48 h, 25 µg/ml ([1]; Caco-2, 25 ug/ml) was 53.9% and the viability at 48 h, 25 µg/ml ([1]; Caco-2, 25 ug/ml, read-out: % Cell viability) was 46.1%. For the same molecule, the cytotoxicity at 48 h, 50 µg/ml ([1]; Caco-2, 50 ug/ml) was 71.2%, the viability at 48 h, 50 µg/ml ([1]; Caco-2, 50 ug/ml, read-out: % Cell viability) was 28.8% and the cytotoxicity at 48 h, 100 µg/ml ([1]; Caco-2, 100 ug/ml) was 92.1%. The viability at 48 h, 100 µg/ml ([1]; Caco-2, 100 ug/ml, read-out: % Cell viability) was 7.87%, the IC50 [2] was 27.1 µg/mL (≈ 49.9 µM) and the IC50 [3] was 25.7 µg/mL (≈ 47.3 µM). The cytotoxicity at 48 h, 6.25 µg/ml ([4]; HTC-116, 6.25 ug/ml) was 31%, the viability at 48 h, 6.25 µg/ml ([4]; HTC-116, 6.25 ug/ml, read-out: % Cell viability) was 69% and the cytotoxicity at 48 h, 12.5 µg/ml ([4]; HTC-116, 12.5 ug/ml) was 43.1%. The viability at 48 h, 12.5 µg/ml ([4]; HTC-116, 12.5 ug/ml, read-out: % Cell viability) was 56.9%, the cytotoxicity at 48 h, 25 µg/ml ([4]; HTC-116, 25 ug/ml) was 53.8% and the viability at 48 h, 25 µg/ml ([4]; HTC-116, 25 ug/ml, read-out: % Cell viability) was 46.2%. It also gave a cytotoxicity at 48 h, 50 µg/ml ([4]; HTC-116, 50 ug/ml) of 70%, a viability at 48 h, 50 µg/ml ([4]; HTC-116, 50 ug/ml, read-out: % Cell viability) of 30% and a cytotoxicity at 48 h, 100 µg/ml ([4]; HTC-116, 100 ug/ml) of 91.2%. The viability at 48 h, 100 µg/ml ([4]; HTC-116, 100 ug/ml, read-out: % Cell viability) was 8.77%, the cytotoxicity at 48 h, 6.25 µg/ml ([5]; HepG2, 6.25 ug/ml) was 31.8% and the viability at 48 h, 6.25 µg/ml ([5]; HepG2, 6.25 ug/ml, read-out: % Cell viability) was 68.2%. It also gave a cytotoxicity at 48 h, 12.5 µg/ml ([5]; HepG2, 12.5 ug/ml) of 37.7%, a viability at 48 h, 12.5 µg/ml ([5]; HepG2, 12.5 ug/ml, read-out: % Cell viability) of 62.3% and a cytotoxicity at 48 h, 25 µg/ml ([5]; HepG2, 25 ug/ml) of 60.1%. The viability at 48 h, 25 µg/ml ([5]; HepG2, 25 ug/ml, read-out: % Cell viability) was 39.9%, the cytotoxicity at 48 h, 50 µg/ml ([5]; HepG2, 50 ug/ml) was 76% and the viability at 48 h, 50 µg/ml ([5]; HepG2, 50 ug/ml, read-out: % Cell viability) was 24%. For the same molecule, the cytotoxicity at 48 h, 100 µg/ml ([5]; HepG2, 100 ug/ml) was 92%, the viability at 48 h, 100 µg/ml ([5]; HepG2, 100 ug/ml, read-out: % Cell viability) was 7.95% and the IC50 [6] was 23.6 µg/mL (≈ 43.3 µM).
